“And” between values parts separate entries of the source, which are not always exact repeats. Equal values may be shown once. “Also recorded” adds a separate entry of the source. Where a name gives a salt, the structure may show the parent alone. Read-outs that look alike come from different tables or passages of the source.
Assays:
[1] = tested on: GIST (gastrointestinal stromal tumors); conditions: for Side effects: imatinib mesylate 200 mg/day
[2] = gefitinib alone, 104 cases, Phase 2 study; cited from earlier work
[3] = tested on: non-small cell lung carcinoma; assay: Activated autologous lymphocyte therapy combined with gefitinib or conventional chemotherapy, 15 cases at Seta Clinic; type: in vivo, human
Protocol: Next, studies were conducted for comparing a combination therapy with a conventional chemotherapy other than gefitinib and the method of the present invention.
The response ratio was 46.7%. […] The effective ratio including this was 53.3%. The highest number of administrations was 35, and 10.4 times of treatments on average were conducted.

[4] = tested on: non-small cell lung carcinoma
[5] = tested on: lung carcinoma (adenocarcinoma); assay: Single case: CD3-LAK plus IRESSA (gefitinib), person; conditions: for Response at examination: gefitinib 250 mg/day + CD3-LAK
[6] = 7 chemotherapy / 8 gefitinib cases
[7] = 7 conventional chemotherapy cases / 8 gefitinib cases, with activated autologous lymphocyte therapy
[8] = of 18 cases, gefitinib + CD3-LAK
[9] = of 18 cases, gefitinib + activated autologous lymphocyte therapy

## Cc1ccc(NC(=O)c2ccc(CN3CCN(C)CC3)cc2)cc1Nc1nccc(-c2cccnc2)n1 [imatinib mesylate]
[1]; Patient 2
  Duration of partial response since the start of the combination therapy: 21 months
  Increase in liver enzyme levels, GOT: 58 U/ml
  Increase in liver enzyme levels, GPT: 43 U/ml
  Side effects: itching with eczema of the face and limbs; also recorded: stomach discomfort; also recorded: diarrhea
[1]; Patient 2, three months after starting the therapy, 151 U/ml at start
  CA12-5 level: 26 U/ml
[1]; Patient 3
  Time without tumor progression since start of combination therapy: 25 months
[1]; Patient 3, combination therapy
  Side effects: diarrhea
[1]; Patient 3, imatinib mesylate 100 to 300 mg per day oral
  Side effects at the time of administration: side effects on their digestive organs
[1]; Patient 3, one month after the MRI (one year and two months)
  Change of foci: decreased slightly
[1]; Patient 3, one year and five months after starting the therapy
  Interpretation of PET: no extraordinary accumulation
[1]; Patient 3, one year and one month after starting the combination therapy, two foci
  Size of foci in MRI: 1.1 cm and 0.6 cm
[1]; Patient 3, since the combination therapy was started
  Tumor progression: had not progressed

## COc1cc2ncnc(Nc3ccc(F)c(Cl)c3)c2cc1OCCCN1CCOCC1 [gefitinib]
[2]
  Response ratio: 18%
[3]; [6]
  Evaluation: Effective (percent): (62.5%)
  Evaluation: No effect (percent): (37.5%)
[3]; [7]
  The number of cases, Complete response: 0 cases
  The number of cases, Long no change: 0 cases
  The number of cases, No change: 3 cases
  The number of cases, Partial response: 5 cases
  The number of cases, Progressive disease: 0 cases
[3]; complete + partial response + long no change, 7 chemotherapy / 8 gefitinib cases
  Evaluation: Effective (number of cases): Effective 5 cases
[3]; gefitinib group (cases 8-15)
  Cases still alive: 7 cases
  Longest period of survival confirmed: 743 days
[3]; individual cases 1-15, at end of trace period
  Outcome at the end: Alive
[3]; no change + progressive disease, 7 chemotherapy / 8 gefitinib cases
  Evaluation: No effect (number of cases): 3 cases
[4]; 18 cases
  Evaluation: No effect (percent): (38.9%)
[4]; 18 cases, gefitinib + CD3-LAK
  New side effect caused by the combined use of the activated autologous lymphocytes: no new side effect
  Side effects: diarrhea, percent: 33%
  Side effects: nausea, percent: 17%
  Side effects: skin symptoms (eruption and dry skin), percent: 89%
[4]; individual cases 1-18, at end of trace period, gefitinib 250 mg/day + CD3-LAK
  Outcome at the end: Alive (17×) and Dead
[4]; of 18 cases, complete + partial response
  Evaluation: Effective (number of cases): Effective 11 cases
[4]; [8]
  Side effects: diarrhea, cases: 6 cases
  Side effects: nausea, cases: 3 cases
  Side effects: skin symptoms (eruption and dry skin), cases: 16 cases
[4]; [9]
  The number of cases, No change: 6 cases
  The number of cases, Partial response: 11 cases
  The number of cases, Progressive disease: 1 cases
[4]; of 18 cases, no change + progressive disease
  Evaluation: No effect (number of cases): No effect 7 cases
[5]; CT at examination on May 9 versus start of combination therapy (FIGS. 2 and 3)
  Lesioned site in CT image: almost disappeared
[5]; examination on Feb. 13, 2003, therapy started Oct. 2002
  Response at examination: considerable response
[5]; examination on May 9 (2003)
  Response at examination: remarkable response
